Measurements: patent publication US20190151312A1, “HEPARAN SULFATE BIOSYNTHESIS INHIBITORS FOR THE TREATMENT OF DISEASES” (BioMarin Pharmaceutical Inc., priority 2014, published 2019)

Tested on: GM01896 cells (MPS II dermal fibroblasts)
Assay: Assay 1: MPS cellular assay, MPS II (heparan sulfate disaccharide biomarkers by LC-MS)
Format: cell-based, human
Conditions: Assay 1 for MPS II, heparan sulfate disaccharide biomarkers (I2a4, I2a6, I2S0 and/or I2S6), read-out: IC50 Range
Description: Dermal fibroblasts from humans with an MPS disorder and from healthy donors are grown. Cells are expanded and kept in culture for analysis. Human foreskin fibroblasts can be obtained from the American Type Culture Collection (CRL-1634). Human dermal fibroblasts derived from biopsies of individuals are purchased from Coriell Institute: clinically healthy individuals, GM00408, GM00409, GM00200 (clinically unaffected sibling of an individual with metachromatic leukodystrophy), GM05659, GM08398, and GM15871 (clinically unaffected sibling of an individual with unclassified Ehlers-Danlos syndrome); heterozygous MPS I carriers, GM01392, GM01393 and GM0003; homozygous individuals affected with MPS I, GM06214, GM11495, GM00034, GM01391 and GM01256; individuals with MPS II, GM01896, GM03181, GM00615 and GM00298; individuals with MPS IIIA, GM00879, GM00643, GM00934, GM06110 and GM00629; MPS IIIB, GM01426; MPS IIIC, GM05157; MPS IIID, GM05093; and MPS VII, GM00121. All cells are grown in DMEM containing 50 U ml-1 penicillin, […] ml-1 streptomycin, 2 mM glutamine and 10% FBS. Cells are seeded on 15-cm-diameter tissue culture dishes, grown to confluence and maintained in culture for analysis. Sulfamidase activity in cell extracts is measured with 4-methylumbelliferyl-α-D-N-sulfoglucosaminide according the vendors instructions substituting Tris-acetate buffer (pH 6.5; Moscerdam).
Cells are treated with a compound of the invention at a concentration at or below 30 μM for 4 to 21 days. Cell monolayers are washed with phosphate buffered saline and detached by treatment with GIBCO trypsin-EDTA solution (Invitrogen). After centrifugation, the supernatant is removed and the cells are lysed in 0.5 mL of 0.1 N sodium hydroxide. The amount of protein is determined by bicinchoninic acid (BCA assay, Thermo Scientific). GAGs are isolated by anion exchange chromatography and digested with glycosaminoglycan lyases (heparinases I, II, and III, IBEX).
Enzymatically depolymerized GAG preparations are differentially mass labeled by reductive amination with [^12C6]aniline. Briefly, heparan sulfate disaccharides (1-10 pmol) are dried down in a centrifugal evaporator and reacted with [^12C6]aniline or [^13C6]aniline (15 μL, 165 μmol) and 15 μL of 1 M NaCNBH3 (Sigma-Aldrich) freshly prepared in dimethylsulfoxide/acetic acid (7:3, v/v) is added to each sample. Reactions are carried out at 37° C. for 16 h and then dried in a centrifugal evaporator. Unsubstituted amines are reacted with propionic anhydride (Sigma-Aldrich). Dried samples are reconstituted in 20 μL of 50% methanol, and 3 μL of propionic anhydride (Sigma-Aldrich, 23.3 μmol) is added. Reactions are carried out at ˜23° C. for 2 h. Acylated disaccharides are subsequently aniline tagged as described above. Each sample is mixed with commercially available standard unsaturated disaccharides (Seikagaku), standard N-sulfoglucosamine, glucosamine-6-sulfate, N-acetylgalactosamine-4-sulfate and N-acetylgalactosamine-6-sulfate (Sigma-Aldrich), and/or synthesized α-L-idopyranosyluronate-(1,4)-2-N-acetyl-2-deoxy-α/β-D-glucopyranoside (I0S0). All standards are tagged with [^13C6]aniline (Sigma-Aldrich). Samples are then analyzed by LC-MS using an LTQ Orbitrap Discovery electrospray ionization mass spectrometer (Thermo Scientific) equipped with quaternary HPLC pump (Finnigan Surveyor MS pump) and a reverse-phase capillary column as described in J. Biol. Chem. 2008, 283(48), 33674.
MPS II: Assay 1, as described above, was used to determine activity for MPS II using GM01896 cells. […] Extracted ion chromatograms were obtained. Cell viability was monitored using alamar blue or ATP quantification. IC50's were calculated using curve fitting within the ChemInnovation CBIS database system.

“{6-[1-methyl-3-(2-morpholin-4-ylethyl)(1H-indazol-6-yl)]-2-morpholin-4-ylpyrimidin-4-yl}[4-(3-methylpyrazolyl)phenyl]amine” showed an IC50 of less than 500 nM.

Same assay, conditions: Homo sapiens, Fibroblast, Assay 1 for MPS II, heparan sulfate disaccharide biomarkers (I2a4, I2a6, I2S0 and/or I2S6), read-out: IC50 Range

COCCc1nc2ccc(-c3cc(Nc4ccc(Cl)cc4)nc(N4CCOCC4)n3)cc2n1C [(4-chlorophenyl){6-[2-(2-methoxyethyl)-1-methylbenzimidazol-6-yl]-2-morpholin-4-ylpyrimidin-4-yl}amine] and Clc1ccc(Nc2cc(-c3ccc4ncn(C5CC5)c4c3)nc(N3CCOCC3)n2)cc1 [(4-chlorophenyl)[6-(1-cyclopropylbenzimidazol-6-yl)-2-morpholin-4-ylpyrimidin-4-yl]amine] fall in the same range of IC50: 500 to 1000 nM for the first, 500 to 1000 nM for the second.

First: CN1NC=C2CC=C(c3cc(Nc4ccc(C(N)=O)cc4)nc(N4CCOCC4)n3)C=C21 [4-((6-(1-methyl-4H-indazol-6-yl)-2-morpholinopyrimidin-4-yl)amino)benzamide]
Second: CNC(=O)c1ccc(Nc2cc(-c3ccc4cnn(CCOC)c4c3)nc(N3CCOCC3)n2)cc1 [[4-({6-[1-(2-methoxyethyl)(1H-indazol-6-yl)]-2-morpholin-4-ylpyrimidin-4-yl}amino)phenyl]-N-methylcarboxamide]
The IC50 of the first is higher: 500 to 1000 nM for the first, less than 500 nM for the second.

Cc1nn(C)c2cc(-c3cc(Nc4ccc5cn(C)nc5c4)nc(N4CCOCC4)n3)ccc12 [[6-(1,3-dimethyl(1H-indazol-6-yl))-2-morpholin-4-ylpyrimidin-4-yl](2-methyl(2H-indazol-6-yl))amine] and Cn1cnc2cc(Nc3cc(-c4ccc5cnn(C)c5c4)nc(N4CCOCC4)n3)ccc21 [[6-(1-methyl(1H-indazol-6-yl))-2-morpholin-4-ylpyrimidin-4-yl](1-methylbenzimidazol-5-yl)amine] fall in the same range of IC50: 1000 to 5000 nM for the first, 1000 to 5000 nM for the second.

Cn1ncc2ccc(-c3cc(Nc4ccc5ncoc5c4)nc(N4CCOCC4)n3)cc21 [benzoxazol-6-yl[6-(1-methyl(1H-indazol-6-yl))-2-morpholin-4-ylpyrimidin-4-yl]amine] and CNS(=O)(=O)c1ccc(Nc2cc(-c3ccc4cnn(C)c4c3)nc(N3CCOCC3)n2)cc1 [methyl[(4-{[6-(1-methyl(1H-indazol-6-yl))-2-morpholin-4-ylpyrimidin-4-yl]amino}phenyl)sulfonyl]amine] fall in the same range of IC50: 1000 to 5000 nM for the first, 1000 to 5000 nM for the second.

CN(C)CCc1nc2cc(Cc3cc(Nc4ccc(Cl)cc4)nc(N4CCOCC4)n3)ccc2[nH]1 [[2-(6-{6-[(4-chlorophenyl)amino]-2-morpholin-4-ylpyrimidin-4-yl}methylbenzimidazol-2-yl)ethyl]dimethylamine] and Cc1nn(C)c2cc(-c3cc(Nc4ccc(Cl)cc4)nc(N4CCOCC4)n3)ncc12 [[6-(1,3-dimethylpyrazolo[5,4-d]pyridin-6-yl)-2-morpholin-4-ylpyrimidin-4-yl](4-chlorophenyl)amine] cannot be ordered by IC50: less than 500 nM for the first, less than 500 nM for the second.

Cn1cnc2ccc(-c3cc(Nc4ccc(C#N)cc4)nc(N4CCOCC4)n3)cc21 [4-{[6-(1-methylbenzimidazol-6-yl)-2-morpholin-4-ylpyrimidin-4-yl]amino}benzenecarbonitrile] and Cn1cnc2ccc(-c3cc(Nc4ccccc4)nc(N4CCOCC4)n3)cc21 [[6-(1-methylbenzimidazol-6-yl)-2-morpholin-4-ylpyrimidin-4-yl]phenylamine] fall in the same range of IC50: 1000 to 5000 nM for the first, 1000 to 5000 nM for the second.

Cn1nc(CCN2CCCC2)c2ccc(-c3cc(Nc4ccc(Cl)cc4)nc(N4CCOCC4)n3)cc21 [(4-chlorophenyl){6-[1-methyl-3-(2-pyrrolidinylethyl)(1H-indazol-6-yl)]-2-morpholin-4-ylpyrimidin-4-yl}amine] and Cn1nc(CCCN2CCCC2)c2ccc(-c3cc(Nc4ccc(Cl)cc4)nc(N4CCOCC4)n3)cc21 [(4-chlorophenyl){6-[1-methyl-3-(3-pyrrolidinylpropyl)(1H-indazol-6-yl)]-2-morpholin-4-ylpyrimidin-4-yl}amine] fall in the same range of IC50: 500 to 1000 nM for the first, 500 to 1000 nM for the second.

Cn1ncc2ccc(-c3cc(Nc4ccc(-c5ccc[nH]5)cc4)nc(N4CCOCC4)n3)cc21 [[6-(1-methyl(1H-indazol-6-yl))-2-morpholin-4-ylpyrimidin-4-yl](4-pyrrol-2-ylphenyl)amine] and Cc1c[nH]nc1-c1ccc(Nc2cc(-c3ccc4cnn(C)c4c3)nc(N3CCOCC3)n2)cc1 [[6-(1-methyl(1H-indazol-6-yl))-2-morpholin-4-ylpyrimidin-4-yl][4-(4-methylpyrazolyl)phenyl]amine] fall in the same range of IC50: 1000 to 5000 nM for the first, 1000 to 5000 nM for the second.

Cn1nc(NCCCN2CCCC2)c2ccc(-c3cc(Nc4ccc(Cl)cc4)nc(N4CCOCC4)n3)cc21 [(4-chlorophenyl)(6-{1-methyl-3-[(3-pyrrolidinylpropyl)amino](1H-indazol-6-yl)}-2-morpholin-4-ylpyrimidin-4-yl)amine] and Clc1ccc(Nc2cc(-c3ccc4c(Cl)nn(CCCN5CCOCC5)c4c3)nc(N3CCOCC3)n2)cc1 [{6-[3-chloro-1-(3-morpholin-4-ylpropyl)(1H-indazol-6-yl)]-2-morpholin-4-ylpyrimidin-4-yl}(4-chlorophenyl)amine] fall in the same range of IC50: 1000 to 5000 nM for the first, 1000 to 5000 nM for the second.

CNC(=O)c1ccc(Nc2cc(-c3ccc4c(c3)ncn4C)nc(N3CCOCC3)n2)cn1 [N-methyl(5-{[6-(1-methylbenzimidazol-5-yl)-2-morpholin-4-ylpyrimidin-4-yl]amino}(2-pyridyl))carboxamide] and CNC(=O)c1ccc(Nc2cc(-c3ccc4[nH]ncc4c3)nc(N3CCOCC3)n2)cn1 [{5-[(6-(1H-indazol-5-yl)-2-morpholin-4-ylpyrimidin-4-yl)amino](2-pyridyl)}-N-methylcarboxamide] fall in the same range of IC50: 500 to 1000 nM for the first, 500 to 1000 nM for the second.

CNC(=O)c1ccc(Nc2cc(-c3ccc4ncn(CCN5CCOCC5)c4c3)nc(N3CCOCC3)n2)cc1 [N-methyl[4-({2-morpholin-4-yl-6-[1-(2-morpholin-4-ylethyl)benzimidazol-6-yl]pyrimidin-4-yl}amino)phenyl]carboxamide] and Cn1nc(CCN2CCOCC2)c2ccc(-c3cc(Nc4ccc5cc[nH]c5c4)nc(N4CCOCC4)n3)cc21 [indol-6-yl{6-[1-methyl-3-(2-morpholin-4-ylethyl)(1H-indazol-6-yl)]-2-morpholin-4-ylpyrimidin-4-yl}amine] fall in the same range of IC50: 500 to 1000 nM for the first, 500 to 1000 nM for the second.

First: Cc1nn(C)c2cc(-c3cc(Nc4ccc(-c5ncc(C(F)(F)F)[nH]5)cc4)nc(N4CCOCC4)n3)ccc12 [[6-(1,3-dimethyl(1H-indazol-6-yl))-2-morpholin-4-ylpyrimidin-4-yl]{4-[5-(trifluoromethyl)imidazol-2-yl]phenyl}amine]
Second: Cc1nn(C)c2cc(-c3cc(Nc4ccc(-c5nnc(C6CC6)[nH]5)cc4)nc(N4CCOCC4)n3)ccc12 [[6-(1,3-dimethyl(1H-indazol-6-yl))-2-morpholin-4-ylpyrimidin-4-yl][4-(5-cyclopropyl(4H-1,2,4-triazol-3-yl))phenyl]amine]
The IC50 of the first is higher: 500 to 1000 nM for the first, less than 500 nM for the second.

First: Cn1cnc2ccc(-c3cc(Nc4ccc(NS(C)(=O)=O)cc4)nc(N4CCOCC4)n3)cc21 [(4-{[6-(1-methylbenzimidazol-6-yl)-2-morpholin-4-ylpyrimidin-4-yl]amino}phenyl)(methylsulfonyl)amine]
Second: Clc1ccc(Nc2cc(-c3ccc4ncn(CC5CC5)c4c3)nc(N3CCOCC3)n2)cc1 [(4-chlorophenyl){6-[1-(cyclopropylmethyl)benzimidazol-6-yl]-2-morpholin-4-ylpyrimidin-4-yl}amine]
The IC50 of the first is higher: 1000 to 5000 nM for the first, 500 to 1000 nM for the second. The second is the more potent here.

With CNC(=O)c1ccc(Nc2cc(-c3ccc4nn(CC5CC5)cc4c3)nc(N3CCOCC3)n2)cn1 [[5-({6-[2-(cyclopropylmethyl)(2H-indazol-5-yl)]-2-morpholin-4-ylpyrimidin-4-yl}amino)(2-pyridyl)]-N-methylcarboxamide] the IC50 was 1000 to 5000 nM.
